The source of these data is patent US20160060260A1, “BROMODOMAIN INHIBITORS FOR TREATING DISEASE” (Board of Regents, The University of Texas System, priority 2014, published 2016).

In the test the target is T1, Recombinant human His-tagged Trim24-PHD-bromodomain (Homo sapiens, UniProt O15164).
T1 construct: Recombinant human His-tagged Trim24-PHD-bromodomain (produced in-house); made in house
T1 sequence (O15164 824-1006 limits assumed): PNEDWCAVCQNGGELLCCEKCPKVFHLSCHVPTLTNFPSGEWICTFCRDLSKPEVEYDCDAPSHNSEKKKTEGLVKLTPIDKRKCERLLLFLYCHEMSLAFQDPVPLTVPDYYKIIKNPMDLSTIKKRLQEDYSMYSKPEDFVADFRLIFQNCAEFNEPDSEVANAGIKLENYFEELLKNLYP
In words: Trim24 AlphaScreen Assay. The class given is binding. To be noted: 5 nM Trim24 protein, 15 nM biotinylated H3K23ac (1-33aa) peptide. The method, boiled down: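 AlphaScreen read-out after 2 h with streptavidin donor and Ni-chelate acceptor beads at 10 ug/mL each, following 1 h room-temperature incubation of compound, His-tagged PHD-bromodomain protein and biotin-H3K23ac (1-33aa) peptide in Hepes pH 7.5 buffer with NaCl and Triton X-100. Signals normalised between no-compound and no-protein wells; IC50 from four-parameter logistic curves.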
Usually IC50 stands for the concentration that inhibits the measured activity by half. As to `Cn1cnc(S(=O)(=O)Nc2cc3c(cc2Oc2cccc(OCC(C)(O)CN)c2)n(C)c(=O)n3C)c1` (stereo not drawn) [Example 234, N-{6-[3-(3-amino-2-hydroxy-2-methylpropoxy)phenoxy]-1,3-dimethyl-2-oxo-2,3-dihydro-1H-1,3-benzodiazol-5-yl}-1-methyl-1H-imidazole-4-sulfonamide], the half-maximal inhibitory concentration (IC50) is above 1000 nM. Consider `CNCC(C)(O)COc1cccc(Oc2cc3c(cc2NS(=O)(=O)c2cn(C)cn2)n(C)c(=O)n3C)c1` (stereo not drawn) [Example 235, N-(6-{3-[2-hydroxy-2-methyl-3-(methylamino)propoxy]phenoxy}-1,3-dimethyl-2-oxo-2,3-dihydro-1H-1,3-benzodiazol-5-yl)-1-methyl-1H-imidazole-4-sulfonamide], for which the IC50 is above 1000 nM.

For the molecule `Cn1cnc(S(=O)(=O)Nc2cc3c(cc2Oc2cccc(OCC4(C)CO4)c2)n(C)c(=O)n3C)c1` (stereo not drawn) [Example 236, N-(1,3-dimethyl-6-(3-((2-methyloxiran-2-yl)methoxy)phenoxy)-2-oxo-2,3-dihydro-1H-benzo[d]imidazol-5-yl)-1-methyl-1H-imidazole-4-sulfonamide], the half-maximal inhibitory concentration (IC50) fell in the range of 100 to 1000 nM. For the molecule `Cn1cnc(S(=O)(=O)Nc2cc3c(cc2Oc2cccc(OCC(C)(O)CNCCN)c2)n(C)c(=O)n3C)c1` (stereo not drawn) [Example 237, N-[6-(3-{3-[(2-aminoethyl)amino]-2-hydroxy-2-methylpropoxy}phenoxy)-1,3-dimethyl-2-oxo-2,3-dihydro-1H-1,3-benzodiazol-5-yl]-1-methyl-1H-imidazole-4-sulfonamide], the half-maximal inhibitory concentration (IC50) was in the range of 100 to 1000 nM. The result for `Cn1cnc(S(=O)(=O)Nc2cc3c(cc2Oc2cccc(OCC(C)(C)O)c2)n(C)c(=O)n3C)c1` [Example 238, N-{6-[3-(2-hydroxy-2-methylpropoxy)phenoxy]-1,3-dimethyl-2-oxo-2,3-dihydro-1H-1,3-benzodiazol-5-yl}-1-methyl-1H-imidazole-4-sulfonamide] reads 100 to 1000 nM. Turning to `CC(COC(=O)CNC(=O)OC(C)(C)C)COc1cccc(Oc2cc3c(cc2NS(=O)(=O)c2cn(C)cn2)n(C)c(=O)n3C)c1` (stereo not drawn) [Example 239, 3-(3-{[1,3-dimethyl-6-(1-methyl-1H-imidazole-4-sulfonamido)-2-oxo-2,3-dihydro-1H-1,3-benzodiazol-5-yl]oxy}phenoxy)-2-methylpropyl 2-{[(tert-butoxy)carbonyl]amino}acetate], the concentration for half-maximal inhibition (IC50) is 100 to 1000 nM. For `Cn1cnc(S(=O)(=O)Nc2cc3c(cc2Oc2cccc(OCCCO)c2)n(C)c(=O)n3C)c1` [Example 240, N-(6-(3-(3-hydroxypropoxy)phenoxy)-1,3-dimethyl-2-oxo-2,3-dihydro-1H-benzo[d]imidazol-5-yl)-1-methyl-1H-imidazole-4-sulfonamide], the IC50 lay in the range of 100 to 1000 nM. `COc1cc(S(=O)(=O)Nc2cc3c(cc2Oc2cccc(OCC4CC4)c2)n(C)c(=O)n3C)ccc1O` [Example 241, N-(6-(3-(cyclopropylmethoxy)phenoxy)-1,3-dimethyl-2-oxo-2,3-dihydro-1H-benzo[d]imidazol-5-yl)-4-hydroxy-3-methoxybenzenesulfonamide]: the IC50 lay in the range of 10 to 100 nM. The result for `CCCOc1cc(OCCCCCCNC(C)=O)cc(Oc2cc3c(cc2NS(=O)(=O)c2cn(C)cn2)n(C)c(=O)n3C)c1` [Example 242, N-(6-(3-((1,3-dimethyl-6-(1-methyl-1H-imidazole-4-sulfonamido)-2-oxo-2,3-dihydro-1H-benzo[d]imidazol-5-yl)oxy)-5-propoxyphenoxy)hexyl)acetamide] reads 10 to 100 nM. With `CCCOc1cccc(Oc2cc3c(cc2NS(=O)(=O)c2cccc(OC/C=C/CCCN)c2)n(C)c(=O)n3C)c1` [Example 243, (E)-3-((6-aminohex-2-en-1-yl)oxy)-N-(1,3-dimethyl-2-oxo-6-(3-propoxyphenoxy)-2,3-dihydro-1H-benzo[d]imidazol-5-yl)benzenesulfonamide 2,2,2-trifluoroacetate], the IC50 lay in the range of 10 to 100 nM. Consider `C=CCN(c1cc2c(cc1Oc1cccc(OCCC)c1)n(C)c(=O)n2C)S(=O)(=O)c1cn(CC=C)cn1` [Example 244, N,1-diallyl-N-(1,3-dimethyl-2-oxo-6-(3-propoxyphenoxy)-2,3-dihydro-1H-benzo[d]imidazol-5-yl)-1H-imidazole-4-sulfonamide], for which the IC50 was in the range of 100 to 1000 nM.

On to `CCCOc1cc(OCCCCCCN)cc(Oc2cc3c(cc2N(C)S(=O)(=O)c2ccc(OC)c(OC)c2)n(C)c(=O)n3C)c1` [Example 245, N-(6-(3-((6-aminohexyl)oxy)-5-propoxyphenoxy)-1,3-dimethyl-2-oxo-2,3-dihydro-1H-benzo[d]imidazol-5-yl)-3,4-dimethoxy-N-methylbenzenesulfonamide], for which the IC50 lay within 100 to 1000 nM. On to `CCCOc1cc(OCCCCN2CCOCC2)cc(Oc2cc3c(cc2NS(=O)(=O)c2ccc(OC)c(OC)c2)n(C)c(=O)n3C)c1` [Example 246, N-(1,3-dimethyl-6-(3-(4-morpholinobutoxy)-5-propoxyphenoxy)-2-oxo-2,3-dihydro-1H-benzo[d]imidazol-5-yl)-3,4-dimethoxybenzenesulfonamide 2,2,2-trifluoroacetate], for which the concentration for half-maximal inhibition (IC50) was 10 to 100 nM. Take `CCCOc1cc(OCCCCN2CCC(O)C2)cc(Oc2cc3c(cc2NS(=O)(=O)c2ccc(OC)c(OC)c2)n(C)c(=O)n3C)c1` (stereo not drawn) [Example 247, N-(6-{3-[4-(3-hydroxypyrrolidin-1-yl)butoxy]-5-propoxyphenoxy}-1,3-dimethyl-2-oxo-2,3-dihydro-1H-1,3-benzodiazol-5-yl)-3,4-dimethoxybenzene-1-sulfonamide]: the half-maximal inhibitory concentration (IC50) was 10 to 100 nM. Consider `CCCOc1cc(OCCCCN2CC(O)C2)cc(Oc2cc3c(cc2NS(=O)(=O)c2ccc(OC)c(OC)c2)n(C)c(=O)n3C)c1` [Example 248, N-(6-{3-[4-(3-hydroxyazetidin-1-yl)butoxy]-5-propoxyphenoxy}-1,3-dimethyl-2-oxo-2,3-dihydro-1H-1,3-benzodiazol-5-yl)-3,4-dimethoxybenzene-1-sulfonamide], for which the IC50 was in the range of 10 to 100 nM. As for `CCCOc1cc(OCCCCNC)cc(Oc2cc3c(cc2NS(=O)(=O)c2ccc(OC)c(OC)c2)n(C)c(=O)n3C)c1` [Example 249, N-(1,3-dimethyl-6-{3-[4-(methylamino)butoxy]-5-propoxyphenoxy}-2-oxo-2,3-dihydro-1H-1,3-benzodiazol-5-yl)-3,4-dimethoxybenzene-1-sulfonamide], the IC50 was 10 to 100 nM. On to `CCCOc1cc(OCCCCN2CCCC2)cc(Oc2cc3c(cc2NS(=O)(=O)c2ccc(OC)c(OC)c2)n(C)c(=O)n3C)c1` [Example 250, N-(1,3-dimethyl-2-oxo-6-{3-propoxy-5-[4-(pyrrolidin-1-yl)butoxy]phenoxy}-2,3-dihydro-1H-1,3-benzodiazol-5-yl)-3,4-dimethoxybenzene-1-sulfonamide], for which the concentration for half-maximal inhibition (IC50) is 10 to 100 nM. Take `CCCOc1cc(OCCCCN2CCC2)cc(Oc2cc3c(cc2NS(=O)(=O)c2ccc(OC)c(OC)c2)n(C)c(=O)n3C)c1` [Example 251, N-(6-{3-[4-(azetidin-1-yl)butoxy]-5-propoxyphenoxy}-1,3-dimethyl-2-oxo-2,3-dihydro-1H-1,3-benzodiazol-5-yl)-3,4-dimethoxybenzene-1-sulfonamide]: the IC50 was 1 to 10 nM. As for `CCCOc1cc(OCCCCN)cc(Oc2cc3c(cc2NS(=O)(=O)c2cccc(C(=O)OC)c2)n(C)c(=O)n3C)c1` [Example 252, Methyl 3-({6-[3-(4-aminobutoxy)-5-propoxyphenoxy]-1,3-dimethyl-2-oxo-2,3-dihydro-1H-1,3-benzodiazol-5-yl}sulfamoyl)benzoate], the IC50 lay within 10 to 100 nM.

As for `CCCOc1cc(OCCCCN(C)C)cc(Oc2cc3c(cc2NS(=O)(=O)c2cccc(C(=O)O)c2)n(C)c(=O)n3C)c1` [Example 253, 3-(N-(6-(3-(4-(dimethylamino)butoxy)-5-propoxyphenoxy)-1,3-dimethyl-2-oxo-2,3-dihydro-1H-benzo[d]imidazol-5-yl)sulfamoyl)benzoic acid], the IC50 lay within 10 to 100 nM.

`CCCOc1cc(OCCCC[N+](C)(C)C)cc(Oc2cc3c(cc2NS(=O)(=O)c2ccc(OC)c(OC)c2)n(C)c(=O)n3C)c1` [Example 254, 4-(3-((6-(3,4-dimethoxyphenylsulfonamido)-1,3-dimethyl-2-oxo-2,3-dihydro-1H-benzo[d]imidazol-5-yl)oxy)-5-propoxyphenoxy)-N,N,N-trimethylbutan-1-aminium 2,2,2-trifluoroacetate]: the IC50 is 1 to 10 nM.
